Measurements reported in patent US20110165115A1, “SYNERGISTIC ATTRACTANTS FOR PESTIFEROUS SOCIAL INSECTS” (STERLING INTERNATIONAL INC., priority 2010, published 2011).

Legend:
[1] = test system: Polistes dominulus worker antennae; assay: GC-EAD of cherry branch aeration samples
Experimental: Lapin cherry branches with severely damaged cherries and leaves and undamaged or slightly damaged branches were collected from a cherry orchard at Creston, Canada, on Jul. 29, 2009, and were transported to the Sterling International, Inc. lab (Spokane, Wash.) on the same day and kept at 4° C. before aerations. Headspace volatiles from the cherry branches (damaged or undamaged) were sampled by a battery operated pump and a high density polyacetate oven bag (48.2×59.6 cm Reynolds® Oven Bag; Richmond, Va., USA) enclosure with one activated charcoal filter tube in the air inlet, on Jul. 30, 2009. The volatiles in the enclosure were trapped on one Porapak Q tube (50/80 mesh; 30 mg in Teflon tube: 3 mm×35 mm) for 2.5 hr (airflow 300 ml/min) and extracted with 1 ml redistilled pentane. Aeration samples of the cherry branches (damaged or undamaged/slightly damaged) were injected (3 μl) splitless into a Varian CP-3800 GC equipped with a polar column (HP-INNOWax; 30 m×0.53 mm×1.0 μm film thickness; […] Helium was used as the carrier gas, and the injector and detector temperatures were 250° C. and 300° C., respectively. Column temperature was 50° C. for 1 min, rising to 240° C. at 10° C./min, and then held for 10 min. The outlet for the EAD was held in a humidified air stream flowing at 0.5 m/sec over the antennal preparation. EAD recordings were made using silver wire-glass capillary electrodes filled with Beadle-Ephrussi Ringer on freshly cut antennae. The antennal signals were stored and analyzed on a PC equipped with a serial IDAC interface box and the program EAD ver. 2.5 (Syntech, Hilversum, The Netherlands). […] (See FIG. 2.) The same chemicals were also tested on beneficial insect antennae from Chrysopa oculata, Myrmeleon crudelis, Podisus maculiventris, and Hippodarnia convergens. (See […] active peaks in the aeration samples were identified by GC-MS on an HP 6890 GC series coupled with an HP 5973 Mass Selective Detector using the same type of GC column and conditions as described above. Compounds were identified by comparison of retention times with those of authentic standards and with mass spectra of standards.

[2] = test system: P. dominulus workers antennae; assay: GC-EAD of synthetic mixture of known HIPVs; design: species or system Polistes dominulus; conditions: 100 ng/μl each in hexane
Experimental: (§1) Aeration samples of the cherry branches (damaged or undamaged/slightly damaged) were injected (3 μl) splitless into a Varian CP-3800 GC equipped with a polar column (HP-INNOWax; 30 m×0.53 mm×1.0 μm film thickness; Agilent Technologies, Wilmington, Del., USA) and a 1:1 effluent splitter that allowed simultaneous flame ionization detection (FID) and electroantennographic detection (EAD) of the European paper wasp (Polistes dominulus) worker antennae to the separated volatile compounds. Helium was used as the carrier gas, and the injector and detector temperatures were 250° C. and 300° C., respectively. Column temperature was 50° C. for 1 min, rising to 240° C. at 10° C./min, and then held for 10 min. The outlet for the EAD was held in a humidified air stream flowing at 0.5 m/sec over the antennal preparation. EAD recordings were made using silver wire-glass capillary electrodes filled with Beadle-Ephrussi Ringer on freshly cut antennae. The antennal signals were stored and analyzed on a PC equipped with a serial IDAC interface box and the program EAD ver. 2.5 (Syntech, Hilversum, The Netherlands). In addition, GC-EAD responses to a synthetic mixture (100 ng/μl each) containing nine known HIPVs including cis-3-hexen-1-ol, cis-3-hexenyl acetate, trans-β-ocimene, (E)-4,8-dimethyl-1,3,7-nonatriene, linalool, methyl salicylate, geranyl acetate, trans-β-caryophyllene and trans-β-farnesene were tested on the P. dominulus workers. (See FIG. 2.) The same chemicals were also tested on beneficial insect antennae from Chrysopa oculata, Myrmeleon crudelis, Podisus maculiventris, and Hippodarnia convergens. (See FIG. 6.) Antennally active peaks in the aeration samples were identified by GC-MS on an HP 6890 GC series coupled with an HP 5973 Mass Selective Detector using the same type of GC column and conditions as described above. Compounds were identified by comparison of retention times with those of authentic standards and with mass spectra of standards.

P. dominulus = assay: Field trapping Experiment 1, Rescue W•H•Y traps; type: in vivo, Polistes dominulus; conditions: Exp 1; HIPV added to WHY attractant in the top chamber, or WHY alone
Experimental: (§2) Three field trapping experiments were carried out during late July to early August 2009, in residential and woody areas around Spokane, Wash., USA, using the newly marketed Rescue® W•H•Y traps (www.rescue.com). As used herein, the W•H•Y trap is a trap in accordance with the description of United States Patent Application Publication No. 2009/0151228. The W•H•Y trap has a top chamber and a bottom chamber. The top chamber is baited with two attractants—one of which is a solid contained in a vial (2-methyl-1-butanol) and the other a liquid mixed with water (acetic acid), herein referred to as the W•H•Y top attractant. The bottom chamber is baited with a liquid attractant (heptyl butyrate) poured onto a cotton pad, herein referred to as the W•H•Y bottom attractant. Separation of the top and bottom attractants (otherwise antagonistic to each other when released from the same chamber) in two chambers was a design feature of this trap and creates two focal attraction sources from one trap for different species of wasps, hornets, and yellowjackets. Traps were hung 1.5-2.0 m above the ground on either the fence or tree branches ca. 5 m apart within each trap line. For each trapping experiment, six sets of traps were deployed with their initial trap positions within each set being randomized. To minimize positional effects and obtain more replications, wasp collections and trap re-randomization were carried out when ≧10-20 wasps were caught in the best trap. Each replicate lasted several days depending on wasp flight activity. Captured wasps were removed from the traps and kept in the zip-bags before taking back to the laboratory for recording of the species, gender status, and catch.
(§3) Experiment 3 (Aug. 5-13, 2009) was conducted to determine the potential behavioral activity of different doses of (E)-4,8-dimethyl-1,3,7-nonatriene alone. The individual (or different doses) HIPVs were loaded into either polyethylene bags or centrifuge tube type of dispensers, and released from the top of the W•H•Y trap chamber. W•H•Y trap attractants (both top and bottom or top only) alone and water (top chamber only) were included in the test as positive and blank controls, respectively. The dispenser types, loading and release rates of the tested semiochemicals are described in Tables 1, 2 and 3.
(§4) Trap catch data were converted to proportion (P) of total captured wasps within each replicate. Data were then transformed by arcsin√P to meet the assumptions of normality and homogeneity of variances for ANOVA. Means were compared by ANOVA followed by the Ryan-Einot-Gabriel-Welsh (REGW) multiple Q test (SPSS 16.0 for Windows) at α=0.05.

D. maculata = assay: Field trapping Experiment 1, Rescue W•H•Y traps; type: in vivo, Dolichovespula maculata; conditions: Exp 1; HIPV added to WHY attractant in the top chamber, or WHY alone
Experimental: as §2
(§5) Experiment 1 (Jul. 22-30, 2009) tested ten synthetic HIPV candidates [(E)-2-hexenal, (Z)-3-hexen-1-ol, (Z)-3-hexenyl acetate, cis-ocimene, linalool, methyl salicylate, geranyl acetate, trans-β-caryophyllene, trans-β-farnesene and (E)-4,8-dimethyl-1,3,7-nonatriene], including several paper wasp EAD-active compounds (see FIG. 2 for details), to determine their potential synergistic effect on the Rescue® W•H•Y trap attractants to paper wasps, yellowjackets, and hornets. Experiment 2 (Aug. 5-13, 2009) tested behavioral responses of the paper wasps and yellowjackets to the Rescue® W•H•Y trap attractants (top attractants only) and its combination with (E)-4,8-dimethyl-1,3,7-nonatriene, one of the EAD-active and behaviorally significant HIPVs, in a dose-response fashion. Experiment 3 (Aug. 5-13, 2009) was conducted to determine the potential behavioral activity of different doses of (E)-4,8-dimethyl-1,3,7-nonatriene alone. The individual (or different doses) HIPVs were loaded into either polyethylene bags or centrifuge tube type of dispensers, and released from the top of the W•H•Y trap chamber. W•H•Y trap attractants (both top and bottom or top only) alone and water (top chamber only) were included in the test as positive and blank controls, respectively. The dispenser types, loading and release rates of the tested semiochemicals are described in Tables 1, 2 and 3.
as §4

V. vulgaris = assay: Field trapping Experiment 1, Rescue W•H•Y traps; type: in vivo, Vespula vulgaris; conditions: Exp 1; HIPV added to WHY attractant in the top chamber, or WHY alone
Experimental: as §2, §3, §4

V. acadica = assay: Field trapping Experiment 1, Rescue W•H•Y traps; type: in vivo, Vespula acadica; conditions: Exp 1; HIPV added to WHY attractant in the top chamber, or WHY alone
Experimental: as §2, §3, §4

V. atropilosa = type: in vivo, Vespula atropilosa; conditions: Exp 1; HIPV added to WHY attractant in the top chamber, or WHY alone
D. arenaria = assay: Field trapping Experiment 1, Rescue W•H•Y traps; type: in vivo, Dolichovespula arenaria; conditions: Exp 1; HIPV added to WHY attractant in the top chamber, or WHY alone
Experimental: as §2, §5, §4

V. consobrina = type: in vivo, Vespula consobrina; conditions: Exp 1; HIPV added to WHY attractant in the top chamber, or WHY alone
Experimental: as §2, with “catch. […]” for “catch.”
as §4

P. aurifer = assay: Field trapping Experiment 1, Rescue W•H•Y traps; type: in vivo, Polistes aurifer; conditions: Exp 1; HIPV added to WHY attractant in the top chamber, or WHY alone
Experimental: as §2, §3, §4

V. pensylvanica = assay: Field trapping Experiment 1, Rescue W•H•Y traps; type: in vivo, Vespula pensylvanica; conditions: Exp 1; HIPV added to WHY attractant in the top chamber, or WHY alone
Experimental: as §2, §3, §4

[3] = test system: paper wasps and yellowjackets; assay: Field trapping bioassays, synergism with AA/2MB (summary); type: in vivo; conditions: at the doses tested
Experimental: as §2
Experiment 3 (Aug. 5-13, 2009) was conducted to determine the potential behavioral activity of different doses of (E)-4,8-dimethyl-1,3,7-nonatriene alone. The individual (or different doses) HIPVs were loaded into either polyethylene bags or centrifuge tube type of dispensers, and released from the top of the W•H•Y trap chamber. […]

[4] = test system: Podisus maculiventris antennae; assay: GC-EAD of synthetic HIPVs on beneficial insect antennae; conditions: FIG. 6
Experimental: as §1

[5] = test system: Hippodarnia convergens antennae; assay: as above; conditions: FIG. 6
Experimental: as §1

[6] = test system: Myrmeleon crudelis antennae; assay: as above; conditions: FIG. 6
Experimental: as §1

[7] = test system: Chrysopa oculata antennae; assay: as above; conditions: FIG. 6
Experimental: as §1

[8] = aeration of undamaged or slightly damaged cherry branches
[9] = aeration of severely damaged cherry branches, at current release rates

CCC/C=C/COC(C)=O [(E)-2-hexenyl acetate]
EAD response of worker antennae [1, 8]: strongly responded

C=C/C=C(/C)CCC=C(C)C [(Z)-4,8-dimethyl-1,3,7-nonatriene]
EAD response of worker antennae [2]: responded consistently

CCC/C=C/C=O [E-2-Hexenal, (E)-2-hexenal]
Total Paper Wasps P. dominulus (P. dominulus): 19
Total Yellowjacket Catches D. maculata (D. maculata): 2
Total Yellowjacket Catches V. vulgaris (V. vulgaris): 44
Total Yellowjacket Catches V. acadica (V. acadica): 0
Total Yellowjacket Catches V. atropilosa (V. atropilosa): 3
Total Yellowjacket Catches D. arenaria (D. arenaria): 4
Total Yellowjacket Catches V. consobrina (V. consobrina): 0
Total Paper Wasps P. aurifer (P. aurifer): 8
Total Yellowjacket Catches V. pensylvanica (V. pensylvanica): 423

C=CC(C)(O)CCC=C(C)C (stereo not shown) [Linalool, linalool]
Total Paper Wasps P. dominulus (P. dominulus): 46
Total Yellowjacket Catches D. maculata (D. maculata): 1
Total Yellowjacket Catches V. vulgaris (V. vulgaris): 32
Total Yellowjacket Catches V. acadica (V. acadica): 0
Total Yellowjacket Catches V. atropilosa (V. atropilosa): 0
Total Yellowjacket Catches D. arenaria (D. arenaria): 0
EAD response of worker antennae [2]: responded consistently
Total Yellowjacket Catches V. consobrina (V. consobrina): 0
Total Paper Wasps P. aurifer (P. aurifer): 13
Total Yellowjacket Catches V. pensylvanica (V. pensylvanica): 291

CCCCCCCCC=O [nonanal]
EAD response of worker antennae [1, 9]: repeatable antennal response
EAD response of worker antennae [1, 8]: strongly responded

Cc1ccc(C(C)C)cc1 [p-cymene]
EAD response of worker antennae [1, 9]: did not elicit significant EAD-responses

C=C/C(C)=C/C/C=C(\C)CCC=C(C)C [α-farnesene]
EAD response of worker antennae [1, 9]: did not elicit significant EAD-responses

C=C/C(C)=C/CC=C(C)C [β-ocimene, trans-β-ocimene]
EAD response of worker antennae [2]: responded consistently
synergism of attraction to mixture of acetic acid and 2-methyl-1-butanol [3]: significantly synergize
EAD-response [4]: strong EAD-responses
EAD-response [5]: strong EAD-responses
EAD-response [6]: strong EAD-responses
EAD-response [7]: strong EAD-responses
